Our source for the GI50 and TGI values is PubChem BioAssay (NCI).

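Cells were grown in 96-well plates and exposed to each compound for 48 hours at five concentrations; endpoints were interpolated linearly between bracketing concentrations, or set to the highest concentration if not reached. The concentration for 50% growth inhibition is given as GI50. At the TGI there is no net growth.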

Some test systems named below: DU-145 prostate; MCF7 breast; MDA-MB-231 breast; MDA-MB-435; NCI/ADR-RES ovarian; RXF 393 renal; T-47D breast; DMS 273 small cell lung; LXFL 529 NSCLC; M19-MEL melanoma; SNB-78 CNS; MDA-N; HOP-18 NSCLC.
Experiment in all cases: NCI tumour cell line growth inhibition, 48 h

On to `O=C(Nc1ccc(-n2cc(-c3ccncc3)c(-c3ccc(O)c(Cl)c3)n2)cc1)c1ccc(Cl)c(Cl)c1`, for which the GI50 was 3.91 µM with DU-145 prostate; 2.04 µM with MCF7 breast; 0.51 µM in the experiment with MDA-MB-231 breast; 2.06 µM with MDA-MB-435; 2.02 µM in the experiment with NCI/ADR-RES ovarian; 0.49 µM in the experiment with RXF 393 renal. Also, in the experiment on T-47D breast, the GI50 is 2.37 µM. Further, the TGI in the experiment on DU-145 prostate is over 32.5 µM; with MCF7 breast, over 32.5 µM; with MDA-MB-231 breast, 1.11 µM; with MDA-MB-435, over 32.5 µM; in the experiment with NCI/ADR-RES ovarian, over 32.5 µM; with RXF 393 renal, 1.1 µM. In addition, in the experiment on T-47D breast, the TGI was over 32.5 µM.

With `CCN(CC)CCSc1nc2c([N+](=O)[O-])cccc2[nH]1`, the TGI in the experiment with DMS 273 small cell lung, in the experiment with LXFL 529 NSCLC, in the experiment with M19-MEL melanoma, with RXF 393 renal and with SNB-78 CNS was over 100 µM in each case.

Consider `CCCCCCCCCCCCCCCc1ccc(C(=O)C[n+]2ccccc2)cc1`, for which the GI50 was 1.2 µM in the experiment on DU-145 prostate, 0.886 µM with MDA-MB-231 breast and 1.38 µM in the experiment on T-47D breast. Further, the results for the TGI in the experiment on DU-145 prostate, in the experiment on MDA-MB-231 breast and in the experiment with T-47D breast were 2.44 µM, 2.23 µM and 3.77 µM, respectively.

For `CNC1=C(C)C(=O)C2=C(C1=O)C(COC(N)=O)C1(OC)C3NC3CN21` (configuration not stated), the TGI in the experiment with MCF7 breast turned out to be 10.6 µM; in the experiment on MDA-MB-435, 5.67 µM; with MDA-N, 5.65 µM; in the experiment on T-47D breast, 18.1 µM.

As for `N=C(N)c1ccc(-c2ccc(-c3ccccc3)o2)cc1`, the GI50 in the experiment with DU-145 prostate is 2.72 µM; in the experiment on MDA-MB-231 breast, 1.93 µM; with MDA-MB-435, 1.66 µM; in the experiment on NCI/ADR-RES ovarian it was 2.2 µM. The TGI worked out at 7.93 µM in the experiment with DU-145 prostate, 4.08 µM with MDA-MB-231 breast, 3.03 µM in the experiment with MDA-MB-435 and 5.85 µM in the experiment on NCI/ADR-RES ovarian.

As for `CC(=O)Nc1ccc2c(c1)C(=Nc1ccc(C(=O)O)cc1)c1ccccc1-2`, the TGI with DU-145 prostate, with MCF7 breast, in the experiment with MDA-MB-435, with MDA-N, with NCI/ADR-RES ovarian and in the experiment on RXF 393 renal was over 100 µM throughout. In the experiment with T-47D breast, this compound yielded a TGI of over 100 µM.

`Nc1cccc2cc(S(=O)(=O)Nc3ccc(C(=O)O)cc3)ccc12`: the TGI in the experiment on DU-145 prostate, in the experiment with MCF7 breast, in the experiment with MDA-MB-231 breast, in the experiment with MDA-MB-435, in the experiment with MDA-N and in the experiment on NCI/ADR-RES ovarian was over 100 µM each time. The TGI with RXF 393 renal and in the experiment with T-47D breast was over 100 µM each time.

With `CSc1nc(NC2OC(CO)C(O)C(O)C2O)c(N)c(=O)n1C` (configuration not stated), the TGI with DMS 273 small cell lung, in the experiment on HOP-18 NSCLC, in the experiment with M19-MEL melanoma, in the experiment on MCF7 breast, in the experiment with NCI/ADR-RES ovarian and in the experiment with RXF 393 renal was over 100 µM in each case. The compound also returned a TGI with SNB-78 CNS of over 100 µM.

With `COc1ccc(C2C(Cl)C(=O)N2NC(=O)c2ccc(NC(C)=O)cc2)cc1OC` (configuration not stated), the TGI in the experiment on HOP-18 NSCLC, with LXFL 529 NSCLC and with M19-MEL melanoma was over 100 µM throughout.

For the compound `NC(=O)OCc1c(O)c2c(c(O)c1COC(N)=O)C(=O)C=CC2=O`, the TGI is over 100 µM in the experiment on DMS 273 small cell lung; over 100 µM with HOP-18 NSCLC; over 100 µM in the experiment on LXFL 529 NSCLC; 11.8 µM in the experiment with M19-MEL melanoma; over 100 µM in the experiment on SNB-78 CNS.
